Our source for the IC50 values is patent publication US9695200B2, “Heterocyclic ITK inhibitors for treating inflammation and cancer” (Confluence Life Sciences, Inc., priority 2015, dated 2017).

In one assay the target is ITK (Homo sapiens (Human), UniProt Q08881). Description: ITK inhibitor binding potency (LanthaScreen competitive binding assay). The conditions noted are these: TR-FRET tracer-236 displacement, 10 nM ITK; pre-incubation condition not given; read-out: ITK Inhibition IC50. The source says:
The ability of candidate compounds to interact with ITK is quantitated by a competitive binding assay using the LanthaScreen technology developed by Life Technologies. This assay is based on the binding of a proprietary, Alexa Fluor® 647-labeled, ATP-competitive kinase inhibitor (kinase tracer-236) to the ITK expression construct in the presence of a Europium-conjugated antibody, resulting in a FRET (fluorescence resonance energy transfer) signal. Displacement of the kinase tracer by compound results in a lower emission ratio upon excitation of the Europium chelate. Candidate compounds are designed as potential irreversible inhibitors of ITK, capable of ligating to an active site cysteine residue resulting in time dependent covalent binding. The time dependent nature of irreversible inhibition is investigated by performing the binding assay with and without a pre-incubation of compound and ITK. […] The inhibitory potency of candidate compounds is measured in 20 mM HEPES pH 7.5, 10 mM MgCl2, 0.01% BSA, 0.0005% Tween-20, and 2% DMSO in the presence of 10 nM ITK, 2 nM Eu-anti-GST antibody, and 50 nM kinase tracer-236 using a 384-well plate format. Background signal is defined in the absence of ITK and uninhibited signal is defined in the presence of vehicle (2% DMSO) alone. Compounds were evaluated in an 11 point dose-response ranging from 20 uM to 0.34 nM. The binding assays are performed under two preincubation conditions to evaluate time dependence of inhibition. For the pre-incubation assay, ITK and Eu-anti-GST antibody are pre-incubated with compound or vehicle for two hours prior to the addition of kinase tracer. The non-preincubated assay is run under conditions where ITK and Eu-anti-GST antibody are added to a mixture of compound and kinase tracer. IC50 values of compounds are determined using a 4 parameter logistical fit of emission ratio as a function of the concentration of compound.
(TR-FRET usually uses a lanthanide donor and a delayed reading to cut background.)

Assay [1] deals with phospho-PLCγ1 in Jurkat cells. Description: ITK target modulation PLC-γ assay (phospho-PLCγ1, αCD3-stimulated Jurkat cells). Type of assay: cell-based, human. To be noted: Homo sapiens, 1 hour compound incubation, αCD3 Dynabeads stimulation 8 minutes, MSD phospho-PLCγ1, read-out: PLC-γ Inhibition IC50. The procedure:
Jurkat cells, an immortalized human T-lymphocyte cell line, were maintained in RPMI media, 10% FBS, 1% pen/strep/glutamine (growth media). Cells were plated in growth media plus 50 μM β-mercaptoethanol at 400,000 cells per well of a 96 well plate.
Compounds were serially diluted into DMSO, and then into media to concentrations 10× that of the final assay concentration. Compounds were then added to the cells with the final assay DMSO concentration being 0.1%. Cells were incubated for 1 hour at 37° C.
Following compound incubation, αCD3 Dynabeads were added at 1 bead/cell to each assay well and incubated at 37° C. for 7 minutes. Unstimulated control wells received media only. The plate was then placed on a 96-well magnetic plate for an additional 60 seconds (total assay stimulation time equals 8 minutes). The plate was then dumped and gently patted dry on a paper towel. 50 μl of complete Meso Scale Discovery (MSD) Lysis buffer was then added to each well. Samples were assayed for phospho-PLCγ1 using Meso Scale Discovery technology.
The assay stimulation time has been optimized for detection of Itk kinase-mediated phosphorylation of PLCγ1. The timing and detection reagents for this assay could be adjusted to capture phosphorylation events upstream (e.g., phospho-ZAP70) or downstream of the Itk/PLCγ1 node, provided the appropriate phospho-specific antibodies are available for building of an MSD assay.

What is called IC50 is the concentration that inhibits the measured activity by half.

Chain of ITK (Q08881 whole entry): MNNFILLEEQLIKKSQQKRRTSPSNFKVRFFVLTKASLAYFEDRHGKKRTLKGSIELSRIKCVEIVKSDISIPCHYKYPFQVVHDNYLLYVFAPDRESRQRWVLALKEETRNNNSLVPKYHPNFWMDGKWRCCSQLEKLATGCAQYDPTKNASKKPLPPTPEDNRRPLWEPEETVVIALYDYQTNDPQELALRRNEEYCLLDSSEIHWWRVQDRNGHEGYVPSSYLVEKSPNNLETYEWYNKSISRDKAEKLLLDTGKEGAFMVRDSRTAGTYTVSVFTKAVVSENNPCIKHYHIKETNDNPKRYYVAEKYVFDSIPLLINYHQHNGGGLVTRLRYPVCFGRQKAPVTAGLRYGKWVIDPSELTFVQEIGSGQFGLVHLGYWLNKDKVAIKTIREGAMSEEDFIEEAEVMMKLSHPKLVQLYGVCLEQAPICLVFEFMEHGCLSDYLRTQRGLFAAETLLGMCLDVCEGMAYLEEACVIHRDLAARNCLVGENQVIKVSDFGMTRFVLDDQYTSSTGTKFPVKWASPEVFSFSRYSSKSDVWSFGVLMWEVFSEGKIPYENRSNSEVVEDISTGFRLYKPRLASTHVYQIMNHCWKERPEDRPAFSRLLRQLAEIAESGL

Turning to `C=CC(=O)NC1CN(c2cnc3[nH]cc(-c4ccc(OC)nc4)c3c2)C1` [Example 3, N-(1-(3-(6-Methoxypyridin-3-yl)-1H-pyrrolo[2,3-b]pyridin-5-yl)azetidin-3-yl)acrylamide], the IC50 at ITK was no more than 1 µM.
Take `C=CC(=O)Nc1cccc(-c2cnc3[nH]cc(-c4c[nH]c(=O)c5ccccc45)c3c2)c1` [Example 69, N-(3-(3-(1-oxo-1,2-dihydroisoquino-lin-4-yl)-1H-pyrrolo[2,3-b]pyridin-5-yl)phenyl)acryl-amide]: the 50% inhibitory concentration (IC50) on ITK is no more than 1 µM; in assay [1], greater than 5 µM.
Consider `C=CC(=O)Nc1cc(-c2cnc3[nH]cc(-c4ccnc(OC)c4)c3c2)cc(OC)n1` [Example 40, N-(6-methoxy-4-(3-(2-methoxypyridin-4-yl)-1H-pyrrolo[2,3-b]pyridin-5-yl)pyridin-2-yl)acrylamide], for which, on ITK, the IC50 was no more than 1 µM.
With `C=C(C)C(=O)Nc1cccc(-c2cnc3[nH]cc(-c4cccnc4)c3c2)c1` [Example 85, N-(3-(3-(pyridin-3-yl)-1H-pyrrolo[2,3-b]pyridin-5-yl)phenyl)meth-acrylamide], the concentration for half-maximal inhibition (IC50) on ITK is no more than 1 µM; in assay [1] it was greater than 5 µM.
Turning to `COc1cc(-c2c[nH]c3ncc(-c4cccc(NC(=O)/C(C#N)=C/C(C)C)c4)cc23)ccn1` [Example 87, (E)-2-cyano-N-(3-(3-(2-methoxypyridin-4-yl)-1H-pyrrolo[2,3-b]pyridin-5-yl)phenyl)-4-methylpent-2-enamide], the IC50 at ITK was no more than 1 µM; in assay [1], greater than 5 µM.
In the case of `CN(C)C/C=C/C(=O)Nc1cccc(-c2cnc3[nH]cc(-c4ccncc4)c3c2)c1` [Example 24, (E)-4-(dimethylamino)-N-(3-(3-(pyridin-4-yl)-1H-pyrrolo[2,3-b]pyridin-5-yl)phenyl)but-2-enamide], the half-maximal inhibitory concentration (IC50) was no more than 1 µM at ITK and less than 1 µM in assay [1].
In the same order, the values of `C=CC(=O)NC1CN(c2cnc3[nH]cc(-c4ccnc(F)c4)c3c2)C1` [Example 35, N-(1-(3-(2-fluoropyridin-4-yl)-1H-pyrrolo[2,3-b]pyridin-5-yl)azetidin-3-yl)acrylamide] are no more than 1 µM and greater than 5 µM.
On to `C=CC(=O)Nc1cccc(-c2cnc3[nH]cc(-c4ccnc(OC)c4)c3c2)c1` [Example 6, N-(3-(3-(2-Methoxypyridin-4-yl)-1H-pyrrolo[2,3-b]pyridin-5-yl)phenyl)acrylamide], for which the figures for the IC50 (on ITK; in assay [1]) were no more than 1 µM and less than 1 µM, respectively.
On to `C=CC(=O)Nc1cncc(-c2cnc3[nH]cc(-c4ccnc(F)c4)c3c2)c1` [Example 27, N-(5-(3-(2-fluoropyridin-4-yl)-1H-pyrrolo[2,3-b]pyridin-5-yl)pyridin-3-yl)acrylamide], for which the IC50 on ITK is no more than 1 µM.
For `C=CC(=O)Nc1cncc(-c2cnc3[nH]cc(-c4ccncc4)c3c2)c1` [Example 16, N-(5-(3-(pyridin-4-yl)-1H-pyrrolo[2,3-b]pyridin-5-yl)pyridin-3-yl)acrylamide], the IC50 on ITK was no more than 1 µM.
On to `C=CC(=O)Nc1cccc(-c2cnc3[nH]cc(-c4ccncc4)c3c2)c1` [Example 7, N-(3-(3-(pyridin-4-yl)-1H-pyrrolo[2,3-b]pyridin-5-yl)phenyl)acrylamide], for which the IC50 on ITK was greater than 1 µM.
On to `C=CC(=O)Nc1cccc(-c2cnc3[nH]cc(-c4ccc(OC)nc4)c3c2)c1` [Example 30, N-(3-(3-(6-methoxypyridin-3-yl)-1H-pyrrolo[2,3-b]pyridin-5-yl)phenyl)acryl-amide], for which the IC50 in assay [1] fell in the range of 1 to 5 µM.
Turning to `C=CC(=O)Nc1cccc(-c2cnc3[nH]cc(-c4ccnc5ccccc45)c3c2)c1` [Example 64, N-(3-(3-(quinolin-4-yl)-1H-pyrrolo[2,3-b]pyridin-5-yl)phenyl)acryl-amide], the IC50 in assay [1] was in the range of 1 to 5 µM.
Take `C=CC(=O)Nc1cc(-c2cnc3[nH]cc(-c4ccnc(OC)c4)c3c2)cc(C(O)(CC)CC)c1` [Example 83, N-(3-(3-hydroxypentan-3-yl)-5-(3-(2-methoxypyridin-4-yl)-1H-pyrrolo[2,3-b]pyridin-5-yl)phenyl)acryl-amide]: in assay [1], the IC50 was in the range of 1 to 5 µM.
For `N#CN[C@H]1CCN(c2cnc3[nH]cc(-c4ccncc4)c3c2)C1` [Example 18, (S)-N-(1-(3-(pyridin-4-yl)-1H-pyrrolo[2,3-b]pyridin-5-yl)pyrrolidin-3-yl)cyanamide], on ITK, the IC50 is no more than 1 µM.
As for `C=CC(=O)Nc1cccc(-c2cnc3[nH]cc(-c4cccc5[nH]ccc45)c3c2)c1` [Example 71, N-(3-(3-(1H-indol-4-yl)-1H-pyrrolo[2,3-b]pyridin-5-yl)phenyl)acryl-amide], in assay [1], the IC50 is 1 to 5 µM.
Consider `C=CC(=O)NC1CN(c2cnc3[nH]cc(-c4ccnc(OC)c4)c3c2)C1` [Example 2, N-(1-(3-(2-Methoxypyridin-4-yl)-1H-pyrrolo[2,3-b]pyridin-5-yl)azetidin-3-yl)acrylamide], for which the IC50 at ITK was no more than 1 µM.
Turning to `C=CC(=O)Nc1cccc(-c2cnc3[nH]cc(-c4ccc(NC)nc4)c3c2)c1` [Example 48, N-(3-(3-(6-(methylamino)pyridin-3-yl)-1H-pyrrolo[2,3-b]pyridin-5-yl)phenyl)acryl-amide], in assay [1], the IC50 lay within 1 to 5 µM.
In the case of `C=CC(=O)Nc1cccc(-c2cnc3[nH]cc(-c4ccc(=O)n(CC5CC5)c4)c3c2)c1` [Example 50, N-(3-(3-(1-(cyclopropyl-methyl)-6-oxo-1,6-dihydropyridin-3-yl)-1H-pyrrolo[2,3-b]pyridin-5-yl)phenyl)acryl-amide], in assay [1], the IC50 was less than 1 µM.
Same read-out and setting: with `C=CC(=O)Nc1cc(-c2cnc3[nH]cc(-c4ccc(OC)nc4)c3c2)cc(C(F)(F)F)c1` [Example 58, N-(3-(3-(6-methoxypyridin-3-yl)-1H-pyrrolo[2,3-b]pyridin-5-yl)-5-(trifluoromethyl)phenyl)acryl-amide] the figure was 1 to 5 µM; with `C=CC(=O)Nc1cccc(-c2cnc3[nH]cc(-c4cccc5cnccc45)c3c2)c1` [Example 55, N-(3-(3-(isoquinolin-5-yl)-1H-pyrrolo[2,3-b]pyridin-5-yl)phenyl)acryl-amide], greater than 5 µM; with `C=CC(=O)Nc1cccc(-c2cnc3[nH]cc(-c4cc(OC)ncc4C)c3c2)c1` [Example 79, N-(3-(3-(2-methoxy-5-methylpyridin-4-yl)-1H-pyrrolo[2,3-b]pyridin-5-yl)phenyl)acryl-amide], greater than 5 µM.
Same read-out and setting: in the case of `C=CC(=O)Nc1cccc(-c2cnc3[nH]cc(-c4ccncn4)c3c2)c1` [Example 49, N-(3-(3-(pyrimidin-4-yl)-1H-pyrrolo[2,3-b]pyridin-5-yl)phenyl)acryl-amide] it was less than 1 µM; in that of `C=CC(=O)Nc1cccc(-c2cnc3[nH]cc(-c4cncc5[nH]ccc45)c3c2)c1` [Example 77, N-(3-(3-(1H-pyrrolo[2,3-c]pyridin-4-yl)-1H-pyrrolo[2,3-b]pyridin-5-yl)phenyl)acryl-amide], greater than 5 µM; in that of `C=CC(=O)Nc1cccc(-c2cnc3[nH]cc(-c4ccnc(NC)c4)c3c2)c1` [Example 32, N-(3-(3-(2-(methylamino)pyridin-4-yl)-1H-pyrrolo[2,3-b]pyridin-5-yl)phenyl)acryl-amide], less than 1 µM.
Regarding `C=CC(=O)Nc1cc(C#N)cc(-c2cnc3[nH]cc(-c4ccncc4)c3c2)c1` [Example 19, N-(3-cyano-5-(3-(pyridin-4-yl)-1H-pyrrolo[2,3-b]pyridin-5-yl)phenyl)acryl-amide], the IC50 in assay [1] is greater than 5 µM.
For the compound `C=CC(=O)Nc1cccc(-c2cnc3[nH]cc(-c4cccnc4)c3c2)c1` [Example 12, N-(3-(3-(pyridin-3-yl)-1H-pyrrolo[2,3-b]pyridin-5-yl)phenyl)acryl-amide], the IC50 in assay [1] was in the range of 1 to 5 µM.
